{
  "source": "patent US6124310A",
  "about": "“Enediyne compounds” (priority 1995, dated 2000)",
  "key": {"UV4 cells": {"tested_on": "UV4 cells", "assay": "Growth inhibition of UV4 cells, 18 hours in 96-well plates under aerobic conditions, without or with purified E. coli nitroreductase and NADH", "format": "cell-based", "conditions": "for IC50: Cricetulus griseus, UV4, 18 h, 18 hours, aerobic", "procedure": "The compound prepared in Example 1 was activated by the aerobic nitroreductase from E. coli, by being incubated with UV4 cells for 18 hours in 96-well plates under aerobic conditions."}, "tumour cell cultures": {"tested_on": "tumour cell cultures", "conditions": "naturally-occurring enediyne antibiotics, literature; cited from earlier work"}},
  "data": [
    {"compound": "O=C(OCc1ccc([N+](=O)[O-])cc1)N1c2ccccc2C23OC24CCCC3C#C/C=C\\C#CC14", "note": "(racemic) [compound 2, (6R,6aR,10R,10aS,14Z)-(±)-(4-nitrophenyl)methyl 7,8,9,10-tetrahydro-6a,10a-epoxy-6, [3]-hexene[1,5]diynophenanthridine-5(6H)-carboxylate]", "values": [
      {"measurement": "IC50", "setting": "UV4 cells; compound alone", "value": 18.1, "unit": "µM"},
      {"measurement": "IC50", "setting": "UV4 cells; together with purified E. coli nitroreductase enzyme (1 μg/mL) and NADH (1 mM, as cofactor)", "value": 0.19, "unit": "µM"},
      {"measurement": "fold activation by the enzyme", "setting": "UV4 cells; ratio of IC50 without / with E. coli nitroreductase + NADH, 1080 min", "value": 115, "unit": "fold"}
    ]},
    {"compound": "O=C(Oc1ccccc1)N1c2ccccc2C23OC24CCCC3C#C/C=C\\C#CC14", "note": "(stereo not shown) [formula A']", "values": [
      {"measurement": "showed any activation by the enzyme", "setting": "UV4 cells; E. coli nitroreductase, in words: 'neither ... showed any activation'", "value": "neither"}
    ]},
    {"compound": "calicheamicin", "values": [
      {"measurement": "IC50 values for inhibition of growth of tumour cell cultures", "setting": "tumour cell cultures", "value": "low pM range"}
    ]},
    {"compound": "dynemicin", "values": [
      {"measurement": "IC50 values for inhibition of growth of tumour cell cultures", "setting": "tumour cell cultures", "value": "low pM range"}
    ]},
    {"compound": "esperamicin", "values": [
      {"measurement": "IC50 values for inhibition of growth of tumour cell cultures", "setting": "tumour cell cultures", "value": "low pM range"}
    ]}
  ]
}
